Results reported in ChEMBL document CHEMBL1201862, “PubChem BioAssay data set” (2004).
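Cultured in 96-well plates, cells were exposed to test compound for 48 hours across five concentrations. Abbreviation: GI50, concentration required for 50% inhibition of growth.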 Activity calls are given as the source filed them. Rule as the data show it: active = GI50 up to about 1.1 µM and inactive = higher.

Tests used:
Experiment in all cases: DTP human tumour cell line panel, 48 h
ACHN = test system: ACHN
CCRF-CEM = test system: CCRF-CEM
EKVX = test system: EKVX
Hs-578T = test system: Hs-578T
MDA-MB-435 = test system: MDA-MB-435
Malme-3M = test system: Malme-3M
NCI-H23 = test system: NCI-H23
NCI-H460 = test system: NCI-H460
PC-3 = test system: PC-3
RPMI-8226 = test system: RPMI-8226
RXF 393 = test system: RXF 393
SK-MEL-2 = test system: SK-MEL-2
SK-MEL-5 = test system: SK-MEL-5
SK-OV-3 = test system: SK-OV-3
UACC-62 = test system: UACC-62
SF-539 = test system: SF-539
SNB-75 = test system: SNB-75

Measured: GI50

CN/C(=N\n1cnnc1)OC
inactive: ACHN > 100 µM | CCRF-CEM > 100 µM | EKVX > 100 µM | Hs-578T > 100 µM | MDA-MB-435 > 100 µM | Malme-3M > 100 µM | NCI-H23 > 100 µM | NCI-H460 > 100 µM | PC-3 > 100 µM | RPMI-8226 > 100 µM | RXF 393 > 100 µM | SK-MEL-2 > 100 µM | SK-MEL-5 > 100 µM | SK-OV-3 > 100 µM | UACC-62 > 100 µM

CCCC(=O)Nc1cc([N+](=O)[O-])c([N+](=O)[O-])cc1OC
inactive: ACHN 13.5 µM | CCRF-CEM 14.1 µM | EKVX 17.7 µM | Hs-578T 14.4 µM | MDA-MB-435 18.4 µM | NCI-H23 18.2 µM | NCI-H460 13.3 µM | PC-3 27.2 µM | RPMI-8226 19.8 µM | SF-539 20 µM | SK-MEL-2 16.5 µM | SK-MEL-5 16.6 µM | SK-OV-3 13.9 µM | SNB-75 16.7 µM | UACC-62 18.2 µM

CC12CCC(CC1(Cl)Cl)C2 (stereo not given)
inactive: ACHN > 100 µM | CCRF-CEM > 100 µM | EKVX > 100 µM | Hs-578T > 100 µM | MDA-MB-435 > 100 µM | Malme-3M > 100 µM | NCI-H23 > 100 µM | NCI-H460 > 100 µM | PC-3 > 100 µM | RPMI-8226 > 100 µM | SK-MEL-2 > 100 µM | SK-MEL-5 > 100 µM | SK-OV-3 > 100 µM | SNB-75 > 100 µM | UACC-62 > 100 µM

O=C(O)c1ccccc1/C=N\N=C1NCCN1
inactive: ACHN > 100 µM | CCRF-CEM > 100 µM | EKVX > 100 µM | Hs-578T > 100 µM | MDA-MB-435 > 100 µM | Malme-3M > 100 µM | NCI-H23 > 100 µM | NCI-H460 > 100 µM | PC-3 > 100 µM | RPMI-8226 > 100 µM | SF-539 > 100 µM | SK-MEL-2 > 100 µM | SK-MEL-5 > 100 µM | SK-OV-3 > 100 µM | SNB-75 > 100 µM | UACC-62 > 100 µM

CNC(=O)c1cc2nc3ccccc3c(=O)n2c2ccccc12
inactive: ACHN > 10 µM | CCRF-CEM > 10 µM | EKVX > 10 µM | Hs-578T > 10 µM | MDA-MB-435 > 10 µM | Malme-3M > 10 µM | NCI-H23 > 10 µM | PC-3 > 10 µM | RPMI-8226 > 10 µM | RXF 393 > 10 µM | SF-539 > 10 µM | SK-MEL-2 > 10 µM | SK-MEL-5 > 10 µM | SK-OV-3 > 10 µM | UACC-62 > 10 µM

CC(C)[C@@H](C)[C@@]1(C)C[C@@H]1[C@@H](C)[C@H]1CC[C@@H]([C@@H]2CC=C3C[C@@H](O)CC[C@]3(C)C2=O)[C@]1(C)CCO
inactive: ACHN 12.5 µM | EKVX 12.9 µM | Hs-578T 10.3 µM | MDA-MB-435 11.9 µM | Malme-3M 14 µM | NCI-H23 14.1 µM | NCI-H460 1.77 µM | PC-3 10.1 µM | RPMI-8226 12.2 µM | RXF 393 3.3 µM | SF-539 12.6 µM | SK-MEL-2 18.3 µM | SK-MEL-5 13.1 µM | SNB-75 5.66 µM | UACC-62 14.6 µM

CCOC(=O)CCC(NC(=O)c1ccc(CNc2nc3ccccc3nc2C(=O)OCC)cc1)C(=O)OCC (stereo not given)
inactive: ACHN > 100 µM | CCRF-CEM > 100 µM | EKVX > 100 µM | Hs-578T > 100 µM | MDA-MB-435 3.01 µM | Malme-3M 77.3 µM | NCI-H23 > 100 µM | PC-3 > 100 µM | RPMI-8226 > 100 µM | SK-MEL-2 > 100 µM | SK-MEL-5 > 100 µM | SK-OV-3 > 100 µM | SNB-75 > 100 µM | UACC-62 > 100 µM

C1=C(c2ccccc2)NC2=N[C@H]3CCCC[C@@H]3N2C1c1ccccc1 (stereo not given in full)
inactive: ACHN 13.7 µM | CCRF-CEM 6.67 µM | EKVX 14.4 µM | Hs-578T 17.2 µM | MDA-MB-435 13.6 µM | Malme-3M 12.8 µM | NCI-H23 12.7 µM | NCI-H460 11 µM | PC-3 11.4 µM | RPMI-8226 4.82 µM | SK-MEL-2 17.8 µM | SK-MEL-5 14.6 µM | SK-OV-3 15.8 µM | SNB-75 11.3 µM | UACC-62 15 µM

Cc1ccc2c(c1)C(=O)c1[nH]c3ccc(F)cc3c1CO2
inactive: ACHN 28.6 µM | CCRF-CEM > 100 µM | EKVX 67.6 µM | Hs-578T 17.6 µM | MDA-MB-435 58.9 µM | Malme-3M 26.3 µM | NCI-H23 25.2 µM | NCI-H460 33.9 µM | PC-3 84.9 µM | RPMI-8226 39.9 µM | SF-539 13.9 µM | SK-MEL-2 12.1 µM | SK-MEL-5 > 100 µM | SK-OV-3 15.1 µM | SNB-75 10.3 µM | UACC-62 24.4 µM

CC(C)=CCN1CC(C)C(=O)Nc2cc(Cl)ccc21 (stereo not given)
inactive: ACHN 25 µM | CCRF-CEM 29.4 µM | EKVX 26.2 µM | Hs-578T 36.5 µM | MDA-MB-435 23.4 µM | Malme-3M 25.1 µM | NCI-H23 21.6 µM | NCI-H460 20.5 µM | PC-3 18.6 µM | RPMI-8226 28.8 µM | RXF 393 28.4 µM | SF-539 23.5 µM | SK-MEL-2 16.2 µM | SK-MEL-5 13.6 µM | SK-OV-3 24.8 µM

O=c1oc2cccnc2n1CCCCN1CCN(c2ccccc2)CC1
inactive: ACHN > 100 µM | CCRF-CEM > 100 µM | EKVX > 100 µM | Hs-578T > 100 µM | MDA-MB-435 > 100 µM | Malme-3M 89.1 µM | NCI-H23 > 100 µM | NCI-H460 > 100 µM | PC-3 > 100 µM | RPMI-8226 > 100 µM | RXF 393 > 100 µM | SF-539 > 100 µM | SK-MEL-2 > 100 µM | SK-MEL-5 > 100 µM | SK-OV-3 > 100 µM

COc1ccc(CC(=O)N2CCC3(C)CC(=O)CC=C23)cc1OC (stereo not given)
inactive: ACHN > 100 µM | EKVX > 100 µM | Hs-578T > 100 µM | MDA-MB-435 > 100 µM | Malme-3M > 100 µM | NCI-H23 > 100 µM | PC-3 > 100 µM | RPMI-8226 > 100 µM | RXF 393 > 100 µM | SF-539 > 100 µM | SK-MEL-2 > 100 µM | SK-MEL-5 > 100 µM | SK-OV-3 > 100 µM | UACC-62 > 100 µM

Cc1cc(C)c2c(c1)CC1(Cc3cc(C)c(C)cc3C1=O)C2=O (stereo not given)
inactive: ACHN > 100 µM | CCRF-CEM > 100 µM | EKVX > 100 µM | Hs-578T 56.6 µM | MDA-MB-435 3.82 µM | Malme-3M 4.75 µM | NCI-H460 > 100 µM | PC-3 > 100 µM | RPMI-8226 > 100 µM | RXF 393 44.9 µM | SF-539 46.2 µM | SK-MEL-2 > 100 µM | SK-MEL-5 > 100 µM | SNB-75 > 100 µM | UACC-62 > 100 µM
